Our source for the GI50 and TGI values is PubChem BioAssay (NCI).

Test systems include COLO 205 colon; OVCAR-8 ovarian; HOP-92 NSCLC; HCT-116 colon; SNB-78 CNS; SR leukemia; DMS 273 small cell lung; NCI-H522 lung; PC-3 prostate; BT-549 breast.
Experiment in all cases: inhibition of tumour cell growth, NCI panel, 48 h

SMILES strings stand for the structures.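 Method: 48-hour compound exposure of cells in 96-well plates, five concentrations, linear interpolation of endpoints. GI50: concentration for 50% inhibition of growth. The concentration for full growth arrest is given as TGI.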 Bounds are passed on as bounds.

On to `N.N.N.N.N.N#Cc1nn[n-]n1.[Cl-].[Co+3]`, for which the GI50 in the experiment on COLO 205 colon, in the experiment with OVCAR-8 ovarian, in the experiment on HOP-92 NSCLC, in the experiment on HCT-116 colon, in the experiment with SNB-78 CNS and in the experiment on SR leukemia was greater than 100 µM in each case. Besides, in the experiment with DMS 273 small cell lung, the GI50 is greater than 100 µM. The TGI with COLO 205 colon, in the experiment with OVCAR-8 ovarian, in the experiment on HOP-92 NSCLC, with HCT-116 colon, in the experiment with SNB-78 CNS and in the experiment with SR leukemia was greater than 100 µM in each case. In the experiment on DMS 273 small cell lung, this molecule came in with a TGI greater than 100 µM.

Regarding `Cn1cnc([N+](=O)[O-])c1Sc1nc2ccccc2o1`, the TGI with COLO 205 colon stood at 3.4 µM; in the experiment with NCI-H522 lung, 4.42 µM; with OVCAR-8 ovarian, 10 µM; in the experiment on HOP-92 NSCLC, 12.4 µM; in the experiment on HCT-116 colon, 11.6 µM; with SNB-78 CNS it was 32.3 µM. Also, the values for the TGI in the experiment on SR leukemia and with DMS 273 small cell lung were 8.14 µM and 9.93 µM, respectively.

With `CCC(C)C(=O)O[C@H]1C(=O)O[C@@H]2C[C@H]3C(C)=CC(=O)[C@@H](O)[C@]3(C)[C@H]3[C@@H](O)[C@H](O)[C@@]4(C)OC[C@]32[C@@H]14` (some centres undefined), the TGI with COLO 205 colon was 0.278 µM; with NCI-H522 lung, 0.0773 µM; in the experiment on OVCAR-8 ovarian, less than 0.0302 µM; with HCT-116 colon, less than 0.01 µM; with SNB-78 CNS, 0.394 µM; in the experiment on PC-3 prostate, 0.0143 µM. Besides, the TGI in the experiment on SR leukemia is less than 0.0204 µM; in the experiment on DMS 273 small cell lung, 0.0468 µM.

Take `N#CCCN(C1=NN(C(=O)CC(=O)Nc2ccc(Cl)cc2)C(c2ccccc2)C1)c1ccc(Cl)cc1` (centres undefined): the TGI in the experiment with COLO 205 colon, with NCI-H522 lung, with OVCAR-8 ovarian, with HOP-92 NSCLC, in the experiment on HCT-116 colon and in the experiment with SNB-78 CNS was greater than 100 µM each time. The TGI in the experiment on SR leukemia and with DMS 273 small cell lung was greater than 100 µM in each case.

With `O=C(CCC(=O)Nc1ccc(Cl)cc1)CC(=O)c1ccc2ccccc2c1`, the TGI in the experiment with COLO 205 colon, in the experiment with NCI-H522 lung, in the experiment on OVCAR-8 ovarian, in the experiment on HOP-92 NSCLC, in the experiment on HCT-116 colon and with SNB-78 CNS was greater than 100 µM throughout. Further, the TGI with SR leukemia and in the experiment with DMS 273 small cell lung was greater than 100 µM each time.

On to `Cc1ccc2nc(Sc3c([N+](=O)[O-])ncn3C)[nH]c2c1`, for which the TGI in the experiment on COLO 205 colon was determined as 27.8 µM; with OVCAR-8 ovarian it was 41 µM; in the experiment on HOP-92 NSCLC, 41.3 µM; with HCT-116 colon it was 53.9 µM; in the experiment on SNB-78 CNS, 76.3 µM; in the experiment with SR leukemia, 42.2 µM. Further, in the experiment with DMS 273 small cell lung, the TGI was found to be 40.1 µM.

As to `Cc1cc(Cl)ccc1NC(=O)CC1SC(=NC(=O)c2ccccc2Cl)NC1=O` (centres undefined), the TGI in the experiment on NCI-H522 lung is 29 µM; in the experiment with OVCAR-8 ovarian, greater than 100 µM; in the experiment on HOP-92 NSCLC it was 35.9 µM; with HCT-116 colon, 32 µM; in the experiment on SNB-78 CNS, 50.9 µM; with SR leukemia, 34.5 µM. The TGI in the experiment on DMS 273 small cell lung was 37 µM.

For `O=C(CN(Cc1ccccc1)Cc1ccccc1)N1CCc2c([nH]c3ccccc23)C1c1cccnc1` (centres undefined), the TGI was 73.6 µM with NCI-H522 lung; greater than 100 µM in the experiment on OVCAR-8 ovarian; 12.8 µM in the experiment with HOP-92 NSCLC; 16.2 µM in the experiment with HCT-116 colon; greater than 100 µM in the experiment on SNB-78 CNS; 30.6 µM with SR leukemia. In the experiment with DMS 273 small cell lung, the TGI turned out to be 82.8 µM.

`CCC1(OC(=O)CNC)C(=O)OCc2c1cc1n(c2=O)Cc2cc3ccccc3nc2-1` (centres undefined): the TGI was 1.54 µM in the experiment with COLO 205 colon; 0.285 µM with NCI-H522 lung; 5.11 µM in the experiment on BT-549 breast; greater than 24.4 µM with OVCAR-8 ovarian; 1.56 µM in the experiment on HOP-92 NSCLC; 0.264 µM in the experiment with HCT-116 colon. Moreover, the figures for the TGI in the experiment on SNB-78 CNS, with PC-3 prostate and in the experiment with DMS 273 small cell lung were greater than 86.9 µM, greater than 100 µM and less than 0.0144 µM, respectively.

Turning to `COC(=O)C(=O)C(C#N)c1cccc(Cl)c1` (centres undefined), the TGI in the experiment on COLO 205 colon, in the experiment on NCI-H522 lung, in the experiment on OVCAR-8 ovarian, in the experiment with HCT-116 colon, in the experiment with SNB-78 CNS and in the experiment on SR leukemia was greater than 100 µM each time. Also, the TGI in the experiment on DMS 273 small cell lung is greater than 100 µM.

On to `CC12CCCC(C#N)(C1)OC2=O` (centres undefined), for which the TGI in the experiment on NCI-H522 lung, in the experiment with OVCAR-8 ovarian, in the experiment with HOP-92 NSCLC, in the experiment with HCT-116 colon, with SNB-78 CNS and in the experiment with SR leukemia was greater than 100 µM throughout. The TGI with DMS 273 small cell lung is greater than 100 µM.

In the case of `O=C1c2cccc([N+](=O)[O-])c2C(=O)c2nccnc21`, the TGI was 2.75 µM in the experiment on NCI-H522 lung; 7.09 µM with OVCAR-8 ovarian; 18.6 µM in the experiment with HOP-92 NSCLC; 3.66 µM in the experiment on HCT-116 colon; 7.38 µM with SNB-78 CNS; 5.04 µM with SR leukemia. This molecule came in with a TGI in the experiment on DMS 273 small cell lung of 12.3 µM.

Regarding `CCOC(=O)NC(=O)c1cn(CCCCCCCCCCC(=O)NCCCN2CCN(CCCNC(=O)CCCCCCCCCCn3cc(C(=O)NC(=O)OCC)c(=O)[nH]c3=O)CC2)c(=O)[nH]c1=O`, the TGI in the experiment on COLO 205 colon is greater than 100 µM; in the experiment with NCI-H522 lung it was greater than 10 µM; in the experiment on OVCAR-8 ovarian it was greater than 100 µM; in the experiment on HOP-92 NSCLC it was greater than 100 µM; in the experiment with HCT-116 colon, greater than 100 µM; with SNB-78 CNS it was greater than 100 µM. Further, the TGI in the experiment with SR leukemia and with DMS 273 small cell lung was greater than 100 µM each time.

For the molecule `O=CC1CCC=CC1NC(=O)OCc1ccccc1` (centres undefined), the TGI in the experiment on COLO 205 colon was greater than 100 µM; in the experiment on NCI-H522 lung, greater than 100 µM; in the experiment with OVCAR-8 ovarian, 52.3 µM; with HOP-92 NSCLC it was greater than 100 µM; in the experiment with HCT-116 colon, greater than 100 µM; in the experiment with SNB-78 CNS it was greater than 100 µM. Besides, the TGI in the experiment on SR leukemia and with DMS 273 small cell lung was greater than 100 µM in each case.

`CN1C(c2ccccc2)CC(C)(O)CC1c1ccccc1` (centres undefined): the TGI in the experiment on COLO 205 colon, in the experiment on NCI-H522 lung, with OVCAR-8 ovarian, in the experiment on HOP-92 NSCLC, in the experiment on HCT-116 colon and in the experiment on SNB-78 CNS was greater than 100 µM in each case. For the same molecule, the TGI in the experiment with SR leukemia and with DMS 273 small cell lung was greater than 100 µM in each case.

With `O=C1C(Cl)=C(Cl)C(=O)N1c1ccccc1Cl`, the TGI is greater than 100 µM in the experiment with COLO 205 colon; 22.7 µM in the experiment with NCI-H522 lung; greater than 100 µM in the experiment on OVCAR-8 ovarian; greater than 79.4 µM in the experiment on HOP-92 NSCLC; greater than 100 µM in the experiment with HCT-116 colon; greater than 100 µM in the experiment on SNB-78 CNS. In addition, the TGI with SR leukemia was 69.7 µM; in the experiment on DMS 273 small cell lung, greater than 100 µM.
